# Assay results from patent EP1743636A1, “Combination of a substituted pyrazoline compound and a drug used in food-related disorders” (LABORATORIOS DEL DR. ESTEVE, S.A., priority 2005, dated 2007).
# Where two headings read alike, the source gives them in different places.
# Tests used:
# [1] = tested on: Male NMRI mice; experiment: Mouse tetrad model: sedation and ataxia; type: in vivo; settings: for Antagonistic Effect D: Sedation: 5 mg/kg i.v. prior to Win 55212-2 in a dose of 1,25mg/kg i.v.; for Agonistic effect D: Sedation: 5 mg/kg i.v., measured 20 minutes after injection
# From the text: (§1) Substances with affinity for cannabinoid receptors are known to produce a wide range of pharmacological effects. It is also known that intravenous administration of a substance with affinity for cannabinoid receptors in mice produces analgesia , hypothermia, sedation and catalepsy. Individually, none of these effects can be considered as proof that a tested substance has affinity for cannabinoid-receptors, since all of these effects are common for various classes of centrally active agents. However, substances, which show all of these effects, i.e. substances that are active in this so-called tetrad model are considered to have affinity for the cannabinoid receptors. It has further been shown that cannabinoid receptor antagonists are higly effective in blocking the effects of a cannabinoid agonist in the mouse tetrad model.
# (§2) The tetrad model is described, for example, in the publication of A. C. Howlett et al, International Union of Pharmacology XXVII. Classification of Cannabinoid Receptors, Pharmacol Rev 54, 161-202, 2002 and David R. Compton et al., "In-vivo Characterization of a Specific Cannabinoid Receptor Antagonist (SR141716A) :Inhibition of Tetrahydrocannbinol- induced Responses and Apparent Agonist Activity", J. Pharmacol. Exp. Ther. 277 , 2, 586-594, 1996. The corresponding parts of the description are hereby incorporated by reference.
# Male NMRI mice with a weight of 20-30 g (Harlan, Barcelona, Spain) are used in all of the following experiments.
# (§3) Before testing in the behavioral procedures given below, mice are acclimatized to the experimental setting. Pre-Treatment control values are determined for analgesia hot plate latency (in seconds), rectal temperature, sedation and catalepsy.
# (§4) In order to determine the agonistic activty of the substance to be tested, the mice are injected intravenously with the substance to be tested or the vehicle alone. 15 minutes after injection, latency in hot plate analgesia is measured. Rectal temperature, sedation and catalepsy are measured 20 minutes after injection.
# (§5) In order to determine the antagonistic activity the identical procedure is used as for the determination of the agonistic effects, but with the difference that the substance to be evaluated for its antagonistic activity is injectected 5 minutes before the intravenous injection of 1.25 mg/kg Win-55,212 a known cannabinoid-receptor agonist.
# Sedation and ataxia is determined according to the method described in Desmet L. K. C. et al. "Anticonvulsive properties of Cinarizine and Flunarizine in Rats and Mice", Arzneim. -Forsch. (Frug Res) 25, 9, 1975. […]
# The percentage of sedation is determined according to the formula: %of sedation = arithmetic mean/3 × 100 [formula]
# (§6) The determinination of cannabinoid activity in-vivo was determined as described above. […]
# [2] = molecular target: T1, transfected human CB2 receptors (Homo sapiens, UniProt P34972); experiment: In-vitro determination of affinity to CB2 receptor (radioligand [3H]-CP55940); type: binding; settings: for Ki: radioligand [3H]-CP55940; for inhibition at 1 µM: read-out: CB2-Receptor % Inhibition 10^-6 M
# T1 construct: purchased Receptor Biology, Inc
# Procedure: (§7) The in-vitro determination of the affinity of the substituted pyrazoline compounds to CB1/CB2-Rezeptors is carried out as described in the publication of Ruth A. Ross, Heather C. Brockie et al., "Agonist-inverse agonist characterization at CB1 and CB2 cannabinoid receptors of L-759633, L759656 and AM630", British Journal of Pharmacology, 126, 665-672, (1999), whereby the transfected human CB1 and CB2 receptors of Receptor Biology, Inc. are used. The radioligand used for both receptors is [^3H]-CP55940. The respective parts of the description is hereby incorporated by reference and forms part of the present disclosure. The affinity of the inventive substituted pyrazoline compounds to CB1/CB2 receptors was determined as described above.
# [3] = molecular target: T2, transfected human CB1 receptors (Homo sapiens, UniProt P21554); experiment: In-vitro determination of affinity to CB1 receptor (radioligand [3H]-CP55940); type: binding; settings: for inhibition at 1 µM: read-out: CB1-Receptor % Inhibition 10^-6 M
# T2 construct: purchased Receptor Biology, Inc
# Procedure: as §7
# [4] = tested on: Male NMRI mice; experiment: Mouse tetrad model: hot plate analgesia; type: in vivo; settings: for Antagonistic Effect A: Hot-Plate test: 5 mg/kg i.v. prior to Win 55212-2 in a dose of 1,25mg/kg i.v.; for Agonistic effect A: Hot-Plate test: 5 mg/kg i.v., measured 15 minutes after injection
# From the text: as §1
# as §2, with “reference. […]” for “reference.”
# as §3, §4, §5
# The hot plate analgesia is determined according to the method described in Woolfe D. et al. "The evaluation of analgesic action of pethidine hydrochloride (Demerol)", J. Pharmacol. Exp. Ther. 80, 300-307,1944. […]
# The mice are placed on a hot plate (Harvard Analgesimeter) at 55 ± 0.5 °C until they show a painful sensation by licking their paws or jumping and the time for these sensations to occur is recorded. This reading is considered the basal value (B). […]
# as §6
# [5] = tested on: Male NMRI mice; experiment: Mouse tetrad model: catalepsy; type: in vivo; settings: for Antagonistic Effect C: Catalepsy: 5 mg/kg i.v. prior to Win 55212-2 in a dose of 1,25mg/kg i.v.; for Agonistic effect C: Catalepsy: 5 mg/kg i.v., measured 20 minutes after injection
# From the text: as §1
# as §2, with “reference. […]” for “reference.”
# as §3, §4, §5
# Catalepsy is determined according to the method described in Alpermann H. G. et al. "Pharmacological effets of Hoe 249: A new potential antidepressant", Drugs Dev. […]
# The cataleptic effect of the substance to be tested is evaluated according to the duration of catalepsy, whereby the animals are placed head downwards with their kinlegs upon the top of the wooden block. […]
# The percentage of catalepsy is determined according ot the following formula: %Catalepsy = arithmetic mean/6 × 100 [formula] […]
# [6] = tested on: Male NMRI mice; experiment: Mouse tetrad model: hypothermia; type: in vivo; settings: for Antagonistic Effect B: Hypothermia: 5 mg/kg i.v. prior to Win 55212-2 in a dose of 1,25mg/kg i.v.; for Agonistic effect B: Hypothermia: 5 mg/kg i.v., measured 20 minutes after injection
# From the text: as §1
# as §2, with “reference. […]” for “reference.”
# as §3, §4, §5
# Hypothermia is determined according to the method described in David R. Compton et al. "In-vivo Characterization of a Specific Cannabinoid Receptor Antagonist (SR141716A) Inhibition of Tetrahydrocannbinol- induced Responses and Apparent Agonist Activity", J. Pharmacol Exp Ther. 277 , 2, 586-594, 1996. […]
# The base-line rectal temperatures are determined with a thermometer (Yello Springs Instruments Co., Panlabs) and a thermistor probe inserted to 25mm before the administration of the substance to be tested. […]
# T2 sequence (P21554 whole entry): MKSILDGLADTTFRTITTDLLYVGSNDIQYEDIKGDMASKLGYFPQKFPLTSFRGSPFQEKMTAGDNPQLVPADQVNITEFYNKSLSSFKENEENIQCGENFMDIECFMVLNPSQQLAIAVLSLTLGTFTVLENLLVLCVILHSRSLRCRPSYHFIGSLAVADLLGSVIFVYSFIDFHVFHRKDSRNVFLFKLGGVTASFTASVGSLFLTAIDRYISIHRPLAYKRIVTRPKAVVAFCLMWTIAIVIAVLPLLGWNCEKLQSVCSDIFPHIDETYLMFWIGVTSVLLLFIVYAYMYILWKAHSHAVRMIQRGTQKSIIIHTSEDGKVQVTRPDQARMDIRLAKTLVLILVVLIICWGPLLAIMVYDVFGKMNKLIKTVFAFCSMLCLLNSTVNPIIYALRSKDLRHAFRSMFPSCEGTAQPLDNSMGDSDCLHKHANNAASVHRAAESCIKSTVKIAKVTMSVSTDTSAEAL
# T1 sequence (P34972 whole entry): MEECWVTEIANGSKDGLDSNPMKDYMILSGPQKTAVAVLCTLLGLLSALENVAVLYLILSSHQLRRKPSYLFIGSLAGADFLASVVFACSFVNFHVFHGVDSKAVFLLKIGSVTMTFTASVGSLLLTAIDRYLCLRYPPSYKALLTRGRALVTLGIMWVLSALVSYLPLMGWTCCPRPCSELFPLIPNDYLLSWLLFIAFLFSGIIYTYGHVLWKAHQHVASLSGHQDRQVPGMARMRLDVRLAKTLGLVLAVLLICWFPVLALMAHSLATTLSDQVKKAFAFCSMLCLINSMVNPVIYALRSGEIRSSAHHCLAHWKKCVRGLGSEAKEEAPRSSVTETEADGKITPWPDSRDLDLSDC
Structure (SMILES),Antagonistic Effect D: Sedation [1],Agonistic effect D: Sedation [1],Ki [2] [nM],inhibition at 1 µM [2] [%],Ki [3] [nM],inhibition at 1 µM [3] [%],Antagonistic Effect A: Hot-Plate test [4],Agonistic effect A: Hot-Plate test [4],Antagonistic Effect C: Catalepsy [5],Agonistic effect C: Catalepsy [5],Antagonistic Effect B: Hypothermia [6],Agonistic effect B: Hypothermia [6],"Ki ([3]; radioligand [3H]-CP55940, read-out: CB1-Receptor Ki) [nM]"
"O=C(NN1CCCCC1)C1=NN(c2ccc(Cl)cc2Cl)C(c2ccc(Cl)cc2)C1 (stereo not drawn) [Example 1, N-piperidinyl-5-(4-chlorophenyl)-1-(2,4-dichlorophenyl)-4,5-dihydro-1H-pyrazole-3-carboxamide]",100,0,> 1000,33,< 25,93,74,0,100,0,100,0,
"O=C(C1=NN(c2ccc(Cl)cc2Cl)C(c2ccc(Cl)cc2)C1)N1CCCCC1 (stereo not drawn) [Example 5, [5-(4-Chloro-phenyl)-1-(2,4-dichloro-phenyl)-4,5-dihydro-1H-pyrazol-3-yl]-piperidin-1-yl-methanone]",20,0,~1000,54,,79,50,0,20,0,40,50,111
